Assay [1] has as its target T1, Corticotropin-releasing factor receptor 1 (Homo sapiens, UniProt P34998).
T1 sequence (P34998 whole entry): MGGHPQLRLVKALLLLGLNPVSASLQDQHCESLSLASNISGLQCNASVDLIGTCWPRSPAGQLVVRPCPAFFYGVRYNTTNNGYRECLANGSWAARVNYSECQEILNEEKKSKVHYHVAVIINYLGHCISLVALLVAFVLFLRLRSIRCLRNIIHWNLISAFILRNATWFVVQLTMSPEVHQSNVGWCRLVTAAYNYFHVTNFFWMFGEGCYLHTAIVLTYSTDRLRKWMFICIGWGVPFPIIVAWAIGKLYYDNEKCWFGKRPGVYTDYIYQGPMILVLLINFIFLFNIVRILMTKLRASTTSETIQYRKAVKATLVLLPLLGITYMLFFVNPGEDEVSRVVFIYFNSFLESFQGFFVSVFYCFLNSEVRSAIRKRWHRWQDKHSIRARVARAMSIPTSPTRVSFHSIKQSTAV

The target of another assay is Glucagon receptor (Homo sapiens, UniProt P47871).
Glucagon receptor, sequence (P47871 whole entry): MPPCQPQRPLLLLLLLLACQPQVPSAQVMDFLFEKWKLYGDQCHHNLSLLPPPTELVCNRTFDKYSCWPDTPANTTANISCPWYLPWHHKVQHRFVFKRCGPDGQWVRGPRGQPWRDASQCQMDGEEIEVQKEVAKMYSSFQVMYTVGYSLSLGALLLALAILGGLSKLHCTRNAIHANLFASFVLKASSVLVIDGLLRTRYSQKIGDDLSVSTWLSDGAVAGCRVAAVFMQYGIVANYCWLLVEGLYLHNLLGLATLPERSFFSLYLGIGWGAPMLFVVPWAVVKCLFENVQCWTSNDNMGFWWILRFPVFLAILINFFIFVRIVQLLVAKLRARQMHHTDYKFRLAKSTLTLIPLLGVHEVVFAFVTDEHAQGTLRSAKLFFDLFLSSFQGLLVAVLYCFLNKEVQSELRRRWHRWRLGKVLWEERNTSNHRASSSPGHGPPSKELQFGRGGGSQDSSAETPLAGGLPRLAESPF
Assay [2] addresses 5-hydroxytryptamine receptor 2B (Homo sapiens, UniProt P41595).
In assay [3] the target is T2, Neuropeptide Y receptor type 2 (Homo sapiens, UniProt P49146).
T2 sequence (P49146 whole entry): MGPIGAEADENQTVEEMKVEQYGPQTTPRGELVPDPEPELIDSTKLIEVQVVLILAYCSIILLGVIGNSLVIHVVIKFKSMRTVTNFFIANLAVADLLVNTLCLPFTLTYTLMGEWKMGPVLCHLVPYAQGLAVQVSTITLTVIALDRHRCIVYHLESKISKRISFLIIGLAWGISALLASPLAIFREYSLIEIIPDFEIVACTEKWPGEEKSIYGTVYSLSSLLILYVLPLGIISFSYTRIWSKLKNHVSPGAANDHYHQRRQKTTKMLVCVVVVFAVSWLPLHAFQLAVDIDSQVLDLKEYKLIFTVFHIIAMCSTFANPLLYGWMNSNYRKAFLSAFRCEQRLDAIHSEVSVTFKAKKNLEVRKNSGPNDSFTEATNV

For another assay, the target named is T3, Progesterone receptor (Homo sapiens, UniProt P06401).
T3 sequence (P06401 whole entry): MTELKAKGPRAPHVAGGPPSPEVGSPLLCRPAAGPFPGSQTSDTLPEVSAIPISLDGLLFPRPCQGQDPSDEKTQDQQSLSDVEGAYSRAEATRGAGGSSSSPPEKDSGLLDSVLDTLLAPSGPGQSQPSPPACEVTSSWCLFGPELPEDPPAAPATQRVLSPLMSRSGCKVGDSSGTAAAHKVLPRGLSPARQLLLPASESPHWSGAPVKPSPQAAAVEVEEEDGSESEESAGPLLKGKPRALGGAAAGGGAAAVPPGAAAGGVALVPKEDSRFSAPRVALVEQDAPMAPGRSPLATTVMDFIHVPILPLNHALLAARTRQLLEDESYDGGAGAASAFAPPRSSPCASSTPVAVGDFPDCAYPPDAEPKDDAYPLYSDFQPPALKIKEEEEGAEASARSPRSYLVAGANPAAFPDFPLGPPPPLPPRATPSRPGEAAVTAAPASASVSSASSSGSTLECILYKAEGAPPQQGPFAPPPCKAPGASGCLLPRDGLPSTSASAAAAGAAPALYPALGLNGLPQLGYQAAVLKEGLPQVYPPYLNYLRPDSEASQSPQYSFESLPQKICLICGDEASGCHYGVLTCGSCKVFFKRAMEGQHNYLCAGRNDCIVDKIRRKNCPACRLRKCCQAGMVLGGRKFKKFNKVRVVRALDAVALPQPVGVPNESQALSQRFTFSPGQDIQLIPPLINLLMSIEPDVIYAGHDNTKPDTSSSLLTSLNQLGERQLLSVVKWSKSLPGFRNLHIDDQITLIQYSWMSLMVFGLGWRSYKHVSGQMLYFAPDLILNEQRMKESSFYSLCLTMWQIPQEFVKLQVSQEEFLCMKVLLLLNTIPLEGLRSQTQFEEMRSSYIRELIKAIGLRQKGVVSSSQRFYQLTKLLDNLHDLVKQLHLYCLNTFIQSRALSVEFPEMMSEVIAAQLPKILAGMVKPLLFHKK

Assay [4] deals with Gamma-aminobutyric acid receptor subunit alpha-1/alpha-2/beta-2/gamma-2 (Homo sapiens, UniProt P14867+P18507+P47869+P47870). The format is functional, cell-based.
Gamma-aminobutyric acid receptor subunit alpha-1/alpha-2/beta-2/gamma-2, sequence (P14867 whole entry): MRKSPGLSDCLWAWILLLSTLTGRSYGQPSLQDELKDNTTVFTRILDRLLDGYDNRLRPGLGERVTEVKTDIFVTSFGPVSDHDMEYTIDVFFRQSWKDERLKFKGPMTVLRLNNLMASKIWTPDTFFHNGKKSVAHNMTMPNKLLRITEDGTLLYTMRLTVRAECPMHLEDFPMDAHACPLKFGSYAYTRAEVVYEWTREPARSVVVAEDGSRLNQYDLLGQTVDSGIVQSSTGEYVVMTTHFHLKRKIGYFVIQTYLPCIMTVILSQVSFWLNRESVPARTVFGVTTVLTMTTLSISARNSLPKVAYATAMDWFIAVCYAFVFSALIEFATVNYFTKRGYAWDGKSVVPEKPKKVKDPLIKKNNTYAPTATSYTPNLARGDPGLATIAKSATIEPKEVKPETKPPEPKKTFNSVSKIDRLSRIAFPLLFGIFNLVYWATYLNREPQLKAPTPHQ
Gamma-aminobutyric acid receptor subunit alpha-1/alpha-2/beta-2/gamma-2, sequence (P47870 whole entry): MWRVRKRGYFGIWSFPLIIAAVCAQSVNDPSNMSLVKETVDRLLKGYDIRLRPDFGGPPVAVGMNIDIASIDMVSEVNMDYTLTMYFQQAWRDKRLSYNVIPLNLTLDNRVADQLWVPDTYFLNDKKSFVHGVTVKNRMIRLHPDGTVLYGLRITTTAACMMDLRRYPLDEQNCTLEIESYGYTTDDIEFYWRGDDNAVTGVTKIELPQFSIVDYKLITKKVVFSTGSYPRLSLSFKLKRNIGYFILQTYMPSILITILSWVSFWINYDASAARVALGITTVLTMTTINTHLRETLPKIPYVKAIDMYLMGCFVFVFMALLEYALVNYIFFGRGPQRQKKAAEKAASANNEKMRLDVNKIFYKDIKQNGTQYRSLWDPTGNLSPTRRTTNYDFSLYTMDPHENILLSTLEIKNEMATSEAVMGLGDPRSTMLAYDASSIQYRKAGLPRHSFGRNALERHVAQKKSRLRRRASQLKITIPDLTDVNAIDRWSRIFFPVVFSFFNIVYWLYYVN
Gamma-aminobutyric acid receptor subunit alpha-1/alpha-2/beta-2/gamma-2, sequence (P18507 whole entry): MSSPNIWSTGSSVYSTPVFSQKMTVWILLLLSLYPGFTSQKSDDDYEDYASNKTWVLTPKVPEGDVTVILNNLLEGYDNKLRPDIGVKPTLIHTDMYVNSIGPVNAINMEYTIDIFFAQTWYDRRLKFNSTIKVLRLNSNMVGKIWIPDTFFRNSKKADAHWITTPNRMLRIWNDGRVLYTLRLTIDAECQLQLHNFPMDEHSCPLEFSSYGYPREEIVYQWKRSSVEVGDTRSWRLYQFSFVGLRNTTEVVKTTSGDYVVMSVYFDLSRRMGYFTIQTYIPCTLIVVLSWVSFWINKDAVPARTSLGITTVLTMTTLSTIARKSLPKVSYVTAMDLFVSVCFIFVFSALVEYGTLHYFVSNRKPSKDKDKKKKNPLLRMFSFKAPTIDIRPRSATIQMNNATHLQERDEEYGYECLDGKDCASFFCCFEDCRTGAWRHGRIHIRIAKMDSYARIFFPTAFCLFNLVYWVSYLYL
Gamma-aminobutyric acid receptor subunit alpha-1/alpha-2/beta-2/gamma-2, sequence (P47869 whole entry): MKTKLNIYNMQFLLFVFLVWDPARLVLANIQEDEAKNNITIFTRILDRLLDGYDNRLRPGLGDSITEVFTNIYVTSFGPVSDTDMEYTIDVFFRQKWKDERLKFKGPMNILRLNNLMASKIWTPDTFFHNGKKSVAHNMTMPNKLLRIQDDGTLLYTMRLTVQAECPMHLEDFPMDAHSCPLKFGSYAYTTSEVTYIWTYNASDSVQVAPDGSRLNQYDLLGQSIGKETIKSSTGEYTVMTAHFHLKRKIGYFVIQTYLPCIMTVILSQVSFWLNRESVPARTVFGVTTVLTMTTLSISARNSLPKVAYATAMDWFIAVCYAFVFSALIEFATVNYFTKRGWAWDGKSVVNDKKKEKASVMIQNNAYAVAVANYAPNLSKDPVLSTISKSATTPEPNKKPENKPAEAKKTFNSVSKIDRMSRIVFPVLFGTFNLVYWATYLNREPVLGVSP
A further assay deals with T4, Androgen receptor (Homo sapiens, UniProt P10275).
T4 sequence (P10275 whole entry): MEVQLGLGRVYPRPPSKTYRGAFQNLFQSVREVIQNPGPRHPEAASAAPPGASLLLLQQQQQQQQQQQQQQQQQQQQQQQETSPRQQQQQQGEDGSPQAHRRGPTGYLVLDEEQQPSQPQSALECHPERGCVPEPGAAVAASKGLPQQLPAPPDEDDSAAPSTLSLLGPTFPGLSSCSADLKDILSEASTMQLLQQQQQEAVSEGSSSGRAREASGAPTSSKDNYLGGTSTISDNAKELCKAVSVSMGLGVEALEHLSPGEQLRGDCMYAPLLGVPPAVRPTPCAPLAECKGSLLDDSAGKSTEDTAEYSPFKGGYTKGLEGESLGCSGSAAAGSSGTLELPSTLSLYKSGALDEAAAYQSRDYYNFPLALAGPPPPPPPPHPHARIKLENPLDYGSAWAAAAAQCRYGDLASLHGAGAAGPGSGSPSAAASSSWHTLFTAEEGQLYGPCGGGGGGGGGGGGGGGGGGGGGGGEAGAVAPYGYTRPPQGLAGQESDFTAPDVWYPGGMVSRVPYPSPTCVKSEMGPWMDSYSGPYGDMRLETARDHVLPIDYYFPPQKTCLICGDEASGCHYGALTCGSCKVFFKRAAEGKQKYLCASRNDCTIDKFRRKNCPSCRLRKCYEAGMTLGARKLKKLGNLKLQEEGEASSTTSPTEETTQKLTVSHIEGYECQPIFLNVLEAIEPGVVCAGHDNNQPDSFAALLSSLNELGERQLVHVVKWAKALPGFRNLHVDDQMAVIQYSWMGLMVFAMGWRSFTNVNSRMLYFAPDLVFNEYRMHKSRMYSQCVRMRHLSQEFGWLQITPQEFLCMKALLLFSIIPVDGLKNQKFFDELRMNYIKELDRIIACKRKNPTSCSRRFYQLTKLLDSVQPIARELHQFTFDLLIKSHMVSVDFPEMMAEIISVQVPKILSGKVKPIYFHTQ

Assay [5] deals with Gamma-aminobutyric acid receptor subunit alpha-1 (Rattus norvegicus, UniProt P62813).
Gamma-aminobutyric acid receptor subunit alpha-1, sequence (P62813 whole entry): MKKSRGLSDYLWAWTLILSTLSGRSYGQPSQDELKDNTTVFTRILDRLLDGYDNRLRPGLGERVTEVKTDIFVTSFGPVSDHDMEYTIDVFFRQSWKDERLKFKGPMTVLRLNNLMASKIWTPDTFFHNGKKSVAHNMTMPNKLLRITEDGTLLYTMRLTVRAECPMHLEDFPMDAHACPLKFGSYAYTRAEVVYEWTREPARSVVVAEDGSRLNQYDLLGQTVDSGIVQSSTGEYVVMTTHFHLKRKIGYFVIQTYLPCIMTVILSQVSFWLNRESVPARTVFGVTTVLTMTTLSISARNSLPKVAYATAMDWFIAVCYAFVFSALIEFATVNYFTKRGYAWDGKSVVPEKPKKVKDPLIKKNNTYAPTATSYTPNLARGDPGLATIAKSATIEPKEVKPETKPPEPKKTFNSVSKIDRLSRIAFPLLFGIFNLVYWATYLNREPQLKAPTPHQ

One may read the AC50 as the concentration giving half of the maximal activity seen. Lower therefore signals greater potency.
Note: assay procedure not described here.

5-hydroxytryptamine receptor 2B, sequence (P41595 whole entry): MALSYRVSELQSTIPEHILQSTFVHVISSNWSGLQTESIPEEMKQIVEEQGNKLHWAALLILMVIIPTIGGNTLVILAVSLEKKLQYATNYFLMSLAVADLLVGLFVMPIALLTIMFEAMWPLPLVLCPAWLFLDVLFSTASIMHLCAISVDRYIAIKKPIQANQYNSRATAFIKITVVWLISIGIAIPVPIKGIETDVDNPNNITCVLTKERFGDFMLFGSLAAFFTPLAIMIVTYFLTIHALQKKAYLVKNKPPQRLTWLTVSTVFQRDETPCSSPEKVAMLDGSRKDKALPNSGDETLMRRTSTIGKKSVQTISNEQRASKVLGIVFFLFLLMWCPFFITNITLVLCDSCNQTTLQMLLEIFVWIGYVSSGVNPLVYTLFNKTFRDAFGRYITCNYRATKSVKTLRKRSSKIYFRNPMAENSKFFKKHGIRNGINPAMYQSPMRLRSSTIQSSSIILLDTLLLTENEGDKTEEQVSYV

Take `CN(C)CCC(c1ccc(Cl)cc1)c1ccccn1` (centres undefined) [CHLORPHENIRAMINE]: the AC50 was over 30 µM in assay [1]; over 30 µM at Glucagon receptor; 4.06 µM in assay [2]; over 30 µM in assay [3]; over 30 µM on Progesterone receptor.
Take `Cn1nnc2c(C(N)=O)ncn2c1=O` [TEMOZOLOMIDE]: the AC50 in assay [1] is over 30 µM; in assay [4], over 30 µM; at Glucagon receptor, over 30 µM; in assay [2] it was over 10 µM; in assay [3], over 30 µM; on Progesterone receptor it was over 30 µM.
For the compound `CO[C@H]1C[C@@H]2CC[C@@H](C)[C@@](O)(O2)C(=O)C(=O)N2CCCC[C@H]2C(=O)O[C@H]([C@H](C)C[C@@H]2CC[C@@H](O)[C@H](OC)C2)CC(=O)[C@H](C)/C=C(\C)[C@@H](O)[C@@H](OC)C(=O)[C@H](C)C[C@H](C)/C=C/C=C/C=C/1C` [SIROLIMUS], the AC50 (on Androgen receptor; in assay [1]; in assay [5]; at Glucagon receptor; in assay [3]; at Progesterone receptor) was over 30 µM throughout.
With `Cc1cn([C@H]2C=C[C@@H](CO)O2)c(=O)[nH]c1=O` [STAVUDINE], the AC50 was over 30 µM in assay [1]; over 30 µM in assay [5]; over 30 µM on Glucagon receptor; over 10 µM in assay [2]; over 30 µM in assay [3]; over 30 µM on Progesterone receptor.
With `CCOC(=O)[C@H](CCc1ccccc1)N[C@@H](C)C(=O)N1[C@H](C(=O)O)C[C@@H]2CCC[C@@H]21`, the AC50 in assay [1] is over 30 µM; on Glucagon receptor, over 30 µM; in assay [2] it was over 10 µM; in assay [3] it was over 30 µM; at Progesterone receptor, over 30 µM.
Consider `CCCN1C[C@H](CSC)C[C@@H]2c3cccc4[nH]cc(c34)C[C@H]21` [PERGOLIDE], for which the AC50 was over 30 µM in assay [1]; over 30 µM in assay [4]; over 30 µM on Glucagon receptor; 0.0205 µM in assay [2]; over 30 µM in assay [3]; over 30 µM at Progesterone receptor.
For the compound `Cc1ccc(-c2cc(C(F)(F)F)nn2-c2ccc(S(N)(=O)=O)cc2)cc1` [CELECOXIB], the AC50 is over 30 µM in assay [1]; over 30 µM at Glucagon receptor; over 10 µM in assay [2]; over 30 µM in assay [3]; over 30 µM at Progesterone receptor.
`NCC(CC(=O)O)c1ccc(Cl)cc1` (centres undefined) [BACLOFEN]: the AC50 was over 30 µM in assay [1]; over 30 µM in assay [4]; over 30 µM on Glucagon receptor; over 10 µM in assay [2]; over 30 µM in assay [3]; over 30 µM at Progesterone receptor.
With `CCC(C)n1ncn(-c2ccc(N3CCN(c4ccc(OCC5COC(Cn6cncn6)(c6ccc(Cl)cc6Cl)O5)cc4)CC3)cc2)c1=O` (centres undefined) [ITRACONAZOLE], the AC50 in assay [1] is over 30 µM; at Glucagon receptor it was over 30 µM; in assay [2], over 10 µM; in assay [3] it was over 30 µM; on Progesterone receptor it was over 30 µM.
In the case of `Cc1cn([C@H]2C[C@H](N=[N+]=[N-])[C@@H](CO)O2)c(=O)[nH]c1=O` [ZIDOVUDINE], the AC50 (in assay [1]; in assay [5]; on Glucagon receptor; in assay [3]; on Progesterone receptor) was over 30 µM in each case.
For the compound `CS(=O)(=O)c1ccc(C2=C(c3ccccc3)C(=O)OC2)cc1` [ROFECOXIB], the AC50 in assay [1] was over 30 µM; at Glucagon receptor it was over 30 µM; in assay [2], over 10 µM; in assay [3] it was over 30 µM; on Progesterone receptor it was over 30 µM.
As to `CC(C)C[C@H]1C(=O)N2CCC[C@H]2[C@]2(O)O[C@](NC(=O)[C@@H]3C=C4c5cccc6[nH]c(Br)c(c56)C[C@H]4N(C)C3)(C(C)C)C(=O)N12` [BROMOCRIPTINE], the AC50 was over 30 µM in assay [1]; over 30 µM in assay [4]; over 30 µM in assay [5]; over 30 µM on Glucagon receptor; 0.412 µM in assay [2]; over 30 µM in assay [3]. This compound also gave an AC50 on Progesterone receptor of over 30 µM.
As to `C[C@]12CCC(=O)C=C1CC[C@@H]1[C@@H]2[C@@H](O)C[C@@]2(C)[C@H]1CC[C@]2(O)C(=O)CO` [HYDROCORTISONE], the AC50 in assay [1] is over 30 µM; at Glucagon receptor, over 30 µM; in assay [2], over 10 µM; in assay [3], over 30 µM; on Progesterone receptor, 7.61 µM.
For the compound `Cc1c(C(=O)NN2CCCCC2)nn(-c2ccc(Cl)cc2Cl)c1-c1ccc(Cl)cc1` [RIMONABANT], the AC50 is over 30 µM in assay [1]; over 30 µM in assay [4]; over 30 µM at Glucagon receptor; over 10 µM in assay [2]; over 30 µM in assay [3]; over 30 µM at Progesterone receptor.
As for `Clc1ccc2nsnc2c1NC1=NCCN1` [TIZANIDINE], the AC50 in assay [1] was over 30 µM; at Glucagon receptor, over 30 µM; in assay [2], over 10 µM; in assay [3], over 30 µM; at Progesterone receptor it was over 30 µM.
For `CC[C@H]1OC(=O)[C@H](C)[C@@H](O[C@H]2C[C@@](C)(OC)[C@@H](O)[C@H](C)O2)[C@H](C)[C@@H](O[C@@H]2O[C@H](C)C[C@H](N(C)C)[C@H]2O)[C@](C)(O)C[C@@H](C)CN(C)[C@H](C)[C@@H](O)[C@]1(C)O` [AZITHROMYCIN], the AC50 in assay [1] is over 30 µM; in assay [5] it was over 30 µM; on Glucagon receptor, over 30 µM; in assay [2], over 10 µM; in assay [3], over 30 µM; at Progesterone receptor it was over 30 µM.
